How the values were obtained:
[1] = target: T1, gelatinase B (recombinant full-length enzyme) (Homo sapiens, UniProt P14780); experiment: Thiopeptolide substrate IC50 assay, gelatinase B; format: biochemical
T1 construct: gelatinase B (recombinant full-length enzyme)
Protocol: (§1) Experiments were carried out with both the full-length enzymes and the catalytic domains. […] IC50 values were determined using a thiopeptolide substrate, Ac-Pro-Leu-Gly-thioester-Leu-Leu-Gly-OEt (Ye Q.-Z., Johnson L.L., Hupe D.J., and Baragi V., "Purification and Characterization of the Human Stromelysin Catalytic Domain Expressed in Escherichia coli", Biochemistry, 1992;31:11231-11235). […] IC50 values for gelatinase B, and collagenase, were >100 µM.

[2] = target: T2, gelatinase A (recombinant full-length enzyme) (Homo sapiens, UniProt P08253); experiment: Thiopeptolide substrate IC50 assay, full-length gelatinase A; format: biochemical
T2 construct: gelatinase A (recombinant full-length enzyme)
T2 sequence (P08253 110-660): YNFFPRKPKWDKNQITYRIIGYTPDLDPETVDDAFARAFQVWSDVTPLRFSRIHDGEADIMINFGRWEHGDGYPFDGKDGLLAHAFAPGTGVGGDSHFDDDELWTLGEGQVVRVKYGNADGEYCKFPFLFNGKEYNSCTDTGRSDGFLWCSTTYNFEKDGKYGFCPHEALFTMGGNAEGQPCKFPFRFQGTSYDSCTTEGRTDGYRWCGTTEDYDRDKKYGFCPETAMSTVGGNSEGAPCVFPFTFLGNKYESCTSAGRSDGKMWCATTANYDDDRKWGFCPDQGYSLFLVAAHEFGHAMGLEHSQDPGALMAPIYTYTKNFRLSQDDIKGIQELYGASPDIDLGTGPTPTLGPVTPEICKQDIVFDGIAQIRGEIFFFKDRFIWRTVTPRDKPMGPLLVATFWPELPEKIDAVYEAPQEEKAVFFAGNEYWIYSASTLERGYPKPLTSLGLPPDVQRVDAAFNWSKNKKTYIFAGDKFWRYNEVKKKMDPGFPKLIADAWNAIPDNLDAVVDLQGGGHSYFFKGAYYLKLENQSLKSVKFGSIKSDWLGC
Protocol: as §1

[3] = target: T3, GCD (recombinant gelatinase A catalytic domain) (Homo sapiens, UniProt P08253, DEL220-393); experiment: Thiopeptolide substrate IC50 assay, gelatinase A catalytic domain; format: biochemical
T3 construct: The gelatinase A catalytic domain, GCD, was similarly constructed with the additional removal of the fibronectin-like insert which interrupts the catalytic domain; made in house
T3 sequence (P08253 with tags, fused parts or gaps DEL220-393): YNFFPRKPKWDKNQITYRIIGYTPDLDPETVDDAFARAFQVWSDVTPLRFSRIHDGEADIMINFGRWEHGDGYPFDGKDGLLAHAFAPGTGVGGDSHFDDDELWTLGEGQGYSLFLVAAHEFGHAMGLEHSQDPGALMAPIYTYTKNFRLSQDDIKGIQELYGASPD
From the text: (§2) Matrix metalloproteinases share high sequence homology and the catalytic domains of each of the MMPs can be identified by sequence alignment. The gene for the catalytic domain of stromelysin-1, SCD, was constructed by removing the propeptide and C-terminal domain (Ye Q.-Z., Johnson L.L, Hupe D.J., and Baragi V., "Purification and Characterization of the Human Stromelysin Catalytic Domain Expressed in Escherichia coli", Biochemistry, 1992;31:11231-11235). The gelatinase A catalytic domain, GCD, was similarly constructed with the additional removal of the fibronectin-like insert which interrupts the catalytic domain (Ye Q.-Z., Johnson L.L, Yu A.E., and Hupe D., "Reconstructed 19 kDa Catalytic Domain of Gelatinase A is an Active Proteinase", Biochemistry, 1995;34:4702-4708). Both truncated proteins cleave synthetic peptide substrates and the natural substrates proteoglycan and gelatin in a manner similar to the full-length enzymes and can be used to identify matrix metalloproteinase inhibitors.
(§3) Experiments were carried out with both the full-length enzymes and the catalytic domains. […] IC50 values were determined using a thiopeptolide substrate, Ac-Pro-Leu-Gly-thioester-Leu-Leu-Gly-OEt (Ye Q.-Z., Johnson L.L., Hupe D.J., and Baragi V., "Purification and Characterization of the Human Stromelysin Catalytic Domain Expressed in Escherichia coli", Biochemistry, 1992;31:11231-11235). […]

[4] = tested on: Mycobacterium footpad edema; experiment: Mycobacterium footpad edema assay (MFE); format: in vivo, Wistar rats; details: in Rattus norvegicus, po, paw swelling on third day
Protocol: The activity of Example 2 as a general inhibitor of inflammation was tested using the Mycobacterium footpad edema assay (MFE) in Wistar rats. Compound was administered daily by gavage at 2 mg/kg, 10 mg/kg, or 50 mg/kg.
Male outbred Wistar rats (110-125 g, Charles River Labs, Portage, MI) were used in this study. Rats were housed for a minimum of 1 week before use. Food and water were supplied ad libitum. Foot pad edema was induced following the method described by Martel R.R. and Klicius J., "Comparisons in rats of the antiinflammatory and gastric irritant effects of etodolac with several clinically effective antiinflammatory drugs", Agents and Actions, 1982;12:295. Briefly, male Wistar rats were injected subcutaneously into the right hind footpad with 0.1 mL of 5 mg/mL suspension of killed and dried Mycobacterium butyricum (Difco, Detroit, MI) in liquid paraffin. Compound was suspended in 0.5% hydroxypropylmethylcellulose (HPMC) containing 0.2% Tween-80 and administered orally 1 hour before injection. Subsequent doses of the compound were given 24 and 48 hours after the Mycobacterium. Control animals were given vehicle alone. Swelling was assessed on the third day by subtracting the initial volume (determined immediately following the Mycobacterium injection) from the final volume of the treated paw. Paw volume was determined by mercury plethysmography. The percent inhibition of edema achieved in each compound-treated group was determined by comparison with swelling in the vehicle-treated group and the ID50 values were determined by regression analysis. Statistical significance between experimental groups was evaluated using a Student's t-test. […]

[5] = target: T4, SCD (stromelysin-1 catalytic domain) (Homo sapiens, UniProt P08254); experiment: Thiopeptolide substrate IC50 assay, stromelysin-1 catalytic domain; format: biochemical
T4 construct: The gene for the catalytic domain of stromelysin-1, SCD, was constructed by removing the propeptide and C-terminal domain; made in house; host or cells: Escherichia coli
T4 sequence (P08254 100-272 limits assumed): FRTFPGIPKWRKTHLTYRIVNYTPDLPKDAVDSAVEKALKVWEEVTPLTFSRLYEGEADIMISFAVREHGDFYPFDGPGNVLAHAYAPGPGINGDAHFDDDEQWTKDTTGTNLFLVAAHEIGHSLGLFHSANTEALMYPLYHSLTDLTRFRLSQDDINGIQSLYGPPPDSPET
From the text: as §2, §3

[6] = target: T5, stromelysin-1 (full-length native enzyme) (Homo sapiens, UniProt P08254); experiment: Thiopeptolide substrate IC50 assay, full-length stromelysin-1; format: biochemical
T5 construct: stromelysin-1 (full-length native enzyme)
T5 sequence (P08254 100-477): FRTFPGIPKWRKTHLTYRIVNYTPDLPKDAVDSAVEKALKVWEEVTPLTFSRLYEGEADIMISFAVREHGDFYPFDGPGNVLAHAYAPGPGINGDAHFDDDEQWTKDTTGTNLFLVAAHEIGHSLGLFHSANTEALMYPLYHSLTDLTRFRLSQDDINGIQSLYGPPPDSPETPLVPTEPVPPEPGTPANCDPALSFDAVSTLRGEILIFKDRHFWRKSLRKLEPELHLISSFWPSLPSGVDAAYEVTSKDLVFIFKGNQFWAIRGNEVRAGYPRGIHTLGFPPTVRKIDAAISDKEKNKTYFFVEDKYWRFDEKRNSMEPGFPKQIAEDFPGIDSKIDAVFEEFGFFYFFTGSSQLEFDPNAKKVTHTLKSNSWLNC
Protocol: as §1

EAE = experiment: Experimental allergic encephalomyelitis (EAE), Lewis rat acute model; format: in vivo
Protocol: Female Lewis rats were purchased from Harlan Sprague-Dawley (Indianapolis, IN) and were used at 8 to 10 weeks of age. Active EAE was induced by injection of 0.05 mL emulsion of myelin basic protein (MBP) with complete Freund's adjuvant (CFA), containing 25 µg guinea pig MBP and 100 µg Mycobacterium butyricum (Difco Laboratories, Detroit, MI) into one hind footpad. Immunized rats were observed daily for clinical signs of EAE and scored as follows: 0, no symptoms; 1, loss of tail tonicity; 2, paresis; 3, hind limb paralysis, often accompanied by incontinence; and 4, death. Formalin-fixed brain slice sections were stained with hematoxylin-eosin and evaluated microscopically for perivascular and parenchymal infiltration. Compound was administered by gavage as a solution in sterile saline in a volume of 500 µL. […] Several different protocols were used to define the efficacy and timing requirements for potency.
Protocol 1: Compound was administered daily at 50 mg/kg beginning on Day 0 and continuing through Day 14, with MBP in CFA administered on Day 0 also. […] N = 5 for all groups.
Controls run in parallel included CFA only and MBP in CFA. N = 4 for treatment groups. N = 8 for controls.

[7] = Protocol 1: CFA + MBP, 50 mg/kg daily oral Day 0 through Day 14
[8] = Protocol 2: CFA + MBP, 10 mg/kg alternate days
[9] = Protocol 2: CFA + MBP, 50 mg/kg alternate days

T1 sequence (P14780 94-707): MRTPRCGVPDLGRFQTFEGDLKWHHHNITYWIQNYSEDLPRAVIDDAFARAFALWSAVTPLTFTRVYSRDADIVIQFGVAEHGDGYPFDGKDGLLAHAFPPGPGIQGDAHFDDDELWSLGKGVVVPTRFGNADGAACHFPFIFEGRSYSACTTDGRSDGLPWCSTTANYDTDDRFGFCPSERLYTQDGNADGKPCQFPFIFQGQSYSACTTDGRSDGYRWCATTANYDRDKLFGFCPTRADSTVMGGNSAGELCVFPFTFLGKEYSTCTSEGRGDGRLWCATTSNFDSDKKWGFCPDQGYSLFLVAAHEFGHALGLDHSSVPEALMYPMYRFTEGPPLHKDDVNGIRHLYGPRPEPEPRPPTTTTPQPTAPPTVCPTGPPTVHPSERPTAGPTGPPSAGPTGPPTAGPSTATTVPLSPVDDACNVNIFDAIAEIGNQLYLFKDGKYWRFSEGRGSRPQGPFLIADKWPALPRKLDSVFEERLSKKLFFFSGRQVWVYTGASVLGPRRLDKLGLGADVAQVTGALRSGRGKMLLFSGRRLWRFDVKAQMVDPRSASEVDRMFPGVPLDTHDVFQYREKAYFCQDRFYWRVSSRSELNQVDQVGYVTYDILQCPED

With O=C(O)CCC(=NO)c1ccc2oc3ccccc3c2c1 [Example 2, 4-Dibenzofuran-2-yl-4-hydroximino-butyric acid] the IC50 [1] was > 100 µM, the IC50 [2] was 1.31 µM and the IC50 [3] was 0.04 µM. For the same compound, the inhibition at 2 mg/kg ([4]; 2 mg/kg daily by gavage) was 23%, the inhibition at 10 mg/kg ([4]; 10 mg/kg daily by gavage) was 27% and the inhibition at 50 mg/kg ([4]; 50 mg/kg daily by gavage) was 40%. For the same compound, the IC50 [5] was 7.12 µM, the IC50 [6] was 7.64 µM and the “treated animals showing reduction of symptoms” value (EAE; Protocol 1, 50 mg/kg daily) was 20%. The “treated animals showing total inhibition of symptoms” value (EAE; Protocol 1, 50 mg/kg daily) was 80%, the “leukocyte migration across the blood-brain barrier” value (EAE; Protocol 1, 50 mg/kg daily, histology of brain slices) was “completely prevented” and the “percentage of animals responding” value (EAE; Protocol 1, 50 mg/kg daily, total inhibition or reduction of symptoms) was 100%. For the same compound, the “Day of Peak Expression” value (EAE; [7]) was 12, the “Effect on EAE Rats (≥Paresis/ Total)” value (EAE; [7]) was 1/5 and the “Clinical Grade at Peak of Disease” value (EAE; Protocol 1: CFA + MBP, 50 mg/kg daily oral Day 0 through Day 14, score 0-4, N = 5) was 1.0. For the same compound, the “Effect on EAE Rats (≥Paresis/ Total)” value (EAE; Protocol 1: CFA only (no MBP), 50 mg/kg daily oral) was 0/5, the “Clinical Grade at Peak of Disease” value (EAE; Protocol 1: CFA only (no MBP), 50 mg/kg daily oral, N = 5) was 0 and the “Day of Peak Expression” value (EAE; [8]) was 14. The “Effect on EAE Rats (≥Paresis/ Total)” value (EAE; [8]) was 0/4, the “Clinical Grade at Peak of Disease” value (EAE; Protocol 2: CFA + MBP, 10 mg/kg on Day 0 and alternate days through Day 14, N = 4) was 0.6 and the “Day of Peak Expression” value (EAE; [9]) was 15. The “Effect on EAE Rats (≥Paresis/ Total)” value (EAE; [9]) was 0/4 and the “Clinical Grade at Peak of Disease” value (EAE; Protocol 2: CFA + MBP, 50 mg/kg on Day 0 and alternate days through Day 14, N = 4) was 0.8.

From patent EP0828726B1, “TRICYCLIC INHIBITORS OF MATRIX METALLOPROTEINASES” (WARNER-LAMBERT COMPANY, priority 1995, dated 1996)
